Source: US8821861B2, “Fibrin sealant” (The Board of Trustees of the University of Illinois, priority 2007, dated 2014)
Entries after “also recorded” stand apart in the source; their conditions may differ.

How the values were obtained:
[1] = molecular target: T1, fibrin clots formed from purified human fibrinogen and human α thrombin (Homo sapiens, UniProt P02671+P02675+P02679); assay: Fibrin clot turbidity (A405), purified fibrinogen clotted with thrombin in microplates; format: biochemical; conditions: for polyP concentration exerting maximal effect on turbidity: 2.6 mg/mL citrate-free fibrinogen, 1 nM thrombin (FIG. 8)
T1 construct: purchased Enzyme Research Laboratories (South Bend, Ind.)
T1 sequence (P02671 20-644 isoform P02671-2 limits assumed): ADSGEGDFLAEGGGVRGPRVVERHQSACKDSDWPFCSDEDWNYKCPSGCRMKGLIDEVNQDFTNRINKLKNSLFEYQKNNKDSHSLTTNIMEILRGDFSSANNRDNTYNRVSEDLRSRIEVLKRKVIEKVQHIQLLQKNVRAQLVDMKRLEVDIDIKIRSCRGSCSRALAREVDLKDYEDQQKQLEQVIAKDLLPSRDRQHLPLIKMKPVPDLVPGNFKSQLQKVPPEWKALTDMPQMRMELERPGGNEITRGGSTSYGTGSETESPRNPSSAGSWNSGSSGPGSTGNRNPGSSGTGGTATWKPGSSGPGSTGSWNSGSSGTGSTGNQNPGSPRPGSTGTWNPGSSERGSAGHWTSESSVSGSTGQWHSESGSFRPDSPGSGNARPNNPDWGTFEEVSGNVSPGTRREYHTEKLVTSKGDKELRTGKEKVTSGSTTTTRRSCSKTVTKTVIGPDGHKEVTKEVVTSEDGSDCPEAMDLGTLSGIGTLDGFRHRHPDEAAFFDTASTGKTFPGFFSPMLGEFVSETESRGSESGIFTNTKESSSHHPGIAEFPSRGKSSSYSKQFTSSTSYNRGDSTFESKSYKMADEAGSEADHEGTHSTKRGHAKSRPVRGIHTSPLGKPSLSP
T1 sequence (P02675 31-491): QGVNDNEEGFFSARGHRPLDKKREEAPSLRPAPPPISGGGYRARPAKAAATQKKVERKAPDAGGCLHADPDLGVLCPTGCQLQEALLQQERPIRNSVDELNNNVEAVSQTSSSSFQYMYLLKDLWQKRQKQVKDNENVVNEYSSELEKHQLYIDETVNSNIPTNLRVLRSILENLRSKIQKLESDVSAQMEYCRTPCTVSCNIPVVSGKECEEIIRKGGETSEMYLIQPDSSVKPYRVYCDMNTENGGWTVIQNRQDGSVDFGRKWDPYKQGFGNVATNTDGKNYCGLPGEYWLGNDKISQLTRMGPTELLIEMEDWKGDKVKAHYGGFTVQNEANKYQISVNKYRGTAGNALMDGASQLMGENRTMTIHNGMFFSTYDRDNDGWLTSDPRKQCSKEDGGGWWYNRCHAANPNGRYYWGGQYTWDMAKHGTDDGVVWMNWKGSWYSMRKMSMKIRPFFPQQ
T1 sequence (P02679 27-437 isoform P02679-2 limits assumed): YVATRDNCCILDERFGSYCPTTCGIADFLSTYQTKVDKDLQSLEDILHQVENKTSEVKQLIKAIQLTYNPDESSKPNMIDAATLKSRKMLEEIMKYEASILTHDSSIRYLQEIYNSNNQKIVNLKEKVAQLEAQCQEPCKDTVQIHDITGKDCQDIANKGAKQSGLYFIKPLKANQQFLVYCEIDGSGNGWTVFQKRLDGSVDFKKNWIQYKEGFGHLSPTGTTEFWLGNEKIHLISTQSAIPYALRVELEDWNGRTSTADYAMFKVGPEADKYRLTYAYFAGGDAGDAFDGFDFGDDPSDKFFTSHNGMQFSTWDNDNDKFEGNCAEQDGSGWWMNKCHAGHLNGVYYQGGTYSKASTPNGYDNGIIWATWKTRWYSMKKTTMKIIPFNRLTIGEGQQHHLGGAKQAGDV
Experimental: The in vitro studies reported here utilize a microplate-based method to evaluate the formation of fibrin clots, which are prepared by mixing together purified fibrinogen and thrombin. Once fibrinogen is cleaved to fibrin, the fibrin monomers spontaneously polymerize to yield a three-dimensional gel, or clot. These fibrin polymers scatter visible light, resulting in increased turbidity which can monitored spectrophotometrically to detect clotting.
Fibrin clots were formed in 96-well polystyrene microplates (Corning Inc., Corning, N.Y.) by first preincubating fibrinogen with polyP in TBS plus the indicated CaCl2 concentrations. (Preincubations of fibrinogen with calcium ions were for 15 minutes unless otherwise stated.) Thrombin in TBS plus the same concentration of CaCl2 was then added to trigger clot formation. Reactant concentrations were typically 2.6 mg/mL fibrinogen, 62.5 pM to 8 nM thrombin, 0 to 8 mM polyP, and 0 to 5 mM CaCl2 in a total volume of 200 μL. In some studies, 0 to 10 U/mL unfractionated heparin or 1 mM iodoacetamide were also included. Clotting was evaluated by monitoring the change in turbidity (A405) for varying times (typically, 1 hour) at room temperature using a Spectramax microplate reader (Molecular Devices Corporation, Sunnyvale, Calif.). […] Final turbidities (A405) of fibrin clots were typically quantified after the clots had matured for 60 minutes.

fibrin fibrils [2] = molecular target: T2, fibrin fibrils (Homo sapiens, UniProt P02671+P02675+P02679); assay: Fibril size determination (relative mass-length ratio from wavelength scan); format: biochemical; conditions: 1 mM polyP; 2.6 mg/mL fibrinogen, 3 nM thrombin, 2.5 mM calcium ions
T2 construct: purchased Enzyme Research Laboratories (South Bend, Ind.)
T2 sequence (P02671 20-644 isoform P02671-2 limits assumed): T1 sequence (P02671 20-644 isoform P02671-2 limits assumed)
T2 sequence (P02675 31-491): T1 sequence (P02675 31-491)
T2 sequence (P02679 27-437 isoform P02679-2 limits assumed): T1 sequence (P02679 27-437 isoform P02679-2 limits assumed)
Source text: Previous studies of fibrin clot structure have shown that the final optical density of fibrin clots is primarily a function of the thickness of the fibrils formed. It is possible to estimate the mass-length ratios of fibrin fibrils by measuring the optical density of clots at a series of wavelengths of light, using a suitable mathematical analysis of the data. Such analyses of fibrin clots were made by mixing fibrinogen and thrombin in the presence of calcium ions and varying concentrations of polyP, in order to determine the effect of polyP on the mass-length ratio of the fibrils (FIG. 5(A)). […] When fibrin clots formed in the presence of calcium ions and varying polyP concentrations were visualized using scanning electron microscopy, the fibrin fibrils had increased thickness as the polyP concentration increased (FIGS. 5(C-E)).
Relative fibril mass to length ratios were determined using a modification of the method of Carr and Gabriel for clots with high turbidity. Briefly, fibrin clots were allowed to mature for 2 hours after thrombin addition, after which the absorbance was scanned from 400 to 800 nm on a Spectramax microplate reader. A plot of 1/τ*λ^3(y axis) versus 1/λ^2 (x axis) was used to determine the y intercept, the inverse of which is proportional to the mass-length ratio of the fibers. […]

fibrin fibrils [3] = molecular target: T2, fibrin fibrils; assay: Scanning electron microscopy of fibrin clots (fibril thickness); format: biochemical; conditions: 2.6 mg/mL fibrinogen, 2.5 mM CaCl2, 3 nM thrombin, without polyP 26.5±0.7 nm
Experimental: Fibrin clots formed as described above for turbidity measurements were allowed to mature for 2 hours after thrombin addition. Clots were washed 4 times in 0.1 M cacodylate, fixed in Karnovsky's gluteraldehyde solution overnight, and then processed by stepwise ethanol gradient, critical point drying, and sputter coating with gold palladium. Clots were observed and photographed in six different representative areas using a scanning electron microscope.

[4] = molecular target: T3, fibrin clots / human plasmin (Homo sapiens, UniProt P02671+P02675+P02679); assay: Fibrinolysis of fibrin clots by plasmin; format: biochemical; conditions: 1 mM polyP, 1 mg/mL fibrinogen, 2.5 mM CaCl2, 8 nM plasmin, 1 nM thrombin; clots without polyP lysed quickly
T3 construct: purchased Enzyme Research Laboratories (South Bend, Ind.)
T3 sequence (P02671 20-644 isoform P02671-2 limits assumed): T1 sequence (P02671 20-644 isoform P02671-2 limits assumed)
T3 sequence (P02675 31-491): T1 sequence (P02675 31-491)
T3 sequence (P02679 27-437 isoform P02679-2 limits assumed): T1 sequence (P02679 27-437 isoform P02679-2 limits assumed)
Experimental: FIG. 6 is a graph of the time course of fibrinolysis of fibrin clots. Fibrinogen (1 mg/mL) was preincubated for 15 minutes in the presence of 2.5 mM CaCl2 with 1 mM polyP (▾) or without polyP (O), after which 8 nM plasmin was added followed immediately by 1 nM thrombin. Fibrin clots were allowed to form for 30 minutes, after which their turbidities were measured. The data are plotted as A405 values normalized to the initial A405 value for each curve.
In these experiments, clots were formed by mixing purified human fibrinogen, human plasmin, and human thrombin in the presence of calcium ions, with or without polyP. Clot lysis was quantified by measuring the decrease in optical density over time (following a 30 minute initial clot formation). […] (FIG. 6)

[5] = molecular target: T4, fibrin cross-linking by factor XIIIa (Homo sapiens, UniProt P02671+P02675+P02679); assay: Fibrin cross-link formation (SDS-PAGE); format: biochemical; conditions: 37° C., data not shown
T4 construct: changing the rate or extent of fibrin cross-linking by factor XIIIa; purchased Enzyme Research Laboratories (South Bend, Ind.)
T4 sequence (P02671 20-644 isoform P02671-2 limits assumed): T1 sequence (P02671 20-644 isoform P02671-2 limits assumed)
T4 sequence (P02675 31-491): T1 sequence (P02675 31-491)
T4 sequence (P02679 27-437 isoform P02679-2 limits assumed): T1 sequence (P02679 27-437 isoform P02679-2 limits assumed)
Experimental: Rates of a and y cross-link formation were studied in clotting reactions carried out as described for turbidity measurements using purified fibrinogen, except that fibrin clots were formed in polypropylene tubes at 37° C. and reactions were stopped at various times by adding an equal volume of 2×SDS sample buffer (100 mM Tris-HCl, 1 mM dithiothreitol, 4% sodium dodecyl sulfate (SDS), 0.02% bromophenol blue, 20% glycerol, pH 6.8) with immediate boiling at 95° C. for 5 minutes. Samples (10 μL) were then subjected to SDS-PAGE using 7.5% polyacrylamide gels and stained with Gelcode (Pierce, Rockford, Ill.) according to the manufacturer's directions.

spleen surface wounds = assay: Porcine splenic trauma model of surgical bleeding; format: in vivo, pig
Experimental: In preliminary experiments, the ability of polyP to enhance the performance of a fibrin sealant composed of purified fibrinogen and thrombin was evaluated. The fibrinogen component of the experimental fibrin sealant was pre-mixed with calcium ions and polyP, while control fibrinogen preparations were pre-mixed with calcium ions without polyP. Shallow surface wounds were then made on the surface of the spleen of anesthetized pigs, after which 0.3 mL each of the fibrinogen and thrombin solutions were applied to the wound surface and allowed to react with each other. Including polyP in the fibrinogen solution shortened the time to cessation of bleeding in this model: 9.8±1.0 minutes with polyP, but 12.3±1.0 minutes without polyP (mean±SEM). Adding polyP to the fibrinogen solution also changed the appearance of fibrin clots formed on the wound surfaces.
Young adult pigs weighing 20-35 kg were anesthetized using intramuscular teletamine/zolazepam/glycopyrolate, followed by intubation and maintenance with inhaled isoflurane. A ventral midline laparotomy was performed and the spleen was externalized. Shallow (approximately 1 mm deep) oval surface wounds measuring approximately 3×5 mm were made using a Metzenbaum scissors. […] Time to cessation of bleeding was assessed visually. […]

human plasma = conditions: previous studies [20]; cited from earlier work
[6] = molecular target: T1, fibrin clots formed from purified human fibrinogen and human α thrombin; assay: Fibrin clot turbidity (A405), purified fibrinogen clotted with thrombin in microplates; format: biochemical; conditions: up to 20 U/mL unfractionated heparin, 500 μM polyP

NC(=O)CI [iodoacetamide, reference compound]
effect of iodoacetamide on the enhancement of final clot turbidity by polyP ([1]; transglutaminase inhibitor added to clotting mixtures, data not shown): failed to antagonize the enhancement of final clot turbidity by polyP

Polyphosphate
polyP concentration exerting maximal effect on turbidity ([1]; 2 mM Ca2+): 1 mM | polyP concentration exerting maximal effect on turbidity ([1]; 2.5 mM Ca2+): 1 to 2 mM | polyP concentration exerting maximal effect on turbidity ([1]; 3 mM Ca2+): 2 to 4 mM | polyP concentration exerting maximal effect on turbidity ([1]; 5 mM Ca2+): 3 to 8 mM | polyP concentration giving optimal enhancement of final clot turbidity ([1]; expressed as phosphate monomer, 2.6 mg/mL fibrinogen, 8 nM thrombin, 2.5 mM calcium chloride (FIG. 3)): approximately 1 mM | effect on turbidity of fibrin clots ([1]; in the absence of Ca2+): did not increase the turbidity of fibrin clots | effect on final clot turbidity ([1]; mM Ca2+ present, regardless of the amount of thrombin added): markedly increased final clot turbidity | effect on fibrin clot turbidity with added factor XIIIa ([1]; preactivated factor XIIIa added to the clotting mixtures, data not shown): still increased fibrin clot turbidity | effect on thrombin clotting time ([1]; purified fibrinogen plus thrombin): lack of effect | enhancement of final clot turbidity with factor XIIIa inhibitor ([1]; with or without 1 mM iodoacetamide, data not shown): approximately equally well in the presence or absence of iodoacetamide | mass-length ratio of fibrin fibrils compared to clots formed in the absence of polyP (fibrin fibrils [2]): more than three times larger | mean fibril thickness (±standard error) (fibrin fibrils [3]; 100 μM polyP): 33.6±1.0 nm | mean fibril thickness (±standard error) (fibrin fibrils [3]; 500 μM polyP): 54.2±1.3 nm | mean fibril thickness (±standard error) (fibrin fibrils [3]; 1 mM polyP): 73.4±1.5 nm | resistance of clots to fibrinolysis [4]: highly resistant to lysis by plasmin | rate of formation of cross-linked fibrin chains [5]: appeared to be the same with or without polyP; also recorded: failed to identify any impact of polyP | time to cessation of bleeding (mean±SEM) (spleen surface wounds; fibrin sealant, polyP in the fibrinogen solution, 0.3 mL each of fibrinogen and thrombin solutions on spleen wound, without polyP 12.3±1.0 minutes): 9.8 ± 1.0 min | appearance of fibrin seals formed on the wound surfaces (spleen surface wounds; fibrinogen with polyP versus without polyP (FIG. 7)): more opaque | effect on clotting time of human plasma (human plasma): shortens the clotting time of human plasma | effect on clotting time when thrombin was added to plasma (human plasma): did not shorten clotting times

heparin [reference compound]
magnitude of the turbidity increase relative to polyP ([1]; heparin 0 to 10 units/mL, data not shown): markedly lower than that observed with polyP | effect on fibrin turbidity ([1]; heparin examined from 0 to 10 units/mL, data not shown): increased fibrin turbidity in a dose-dependent fashion | effect of added heparin on the polyP effect on turbidity [6]: did not reduce the effect of polyP on turbidity
